In patent US9682995B2, “Amino-substituted isothiazoles” (BAYER PHARMA AKTIENGESELLSCHAFT, priority 2013, dated 2017):

Columns and labels:
[1] = test system: spindle assembly checkpoint; experiment: SAC-Formation - Nocodazole-Induced Assay; assay type: cell-based; settings: Homo sapiens; HeLa cells, nocodazole 0.1 μg/ml, 24 h, phosphorylated histone H3 on serine 10
Excerpt: (§1) The spindle assembly checkpoint assures the proper segregation of chromosomes during mitosis. Upon entry into mitosis, chromosomes begin to condensate which is accompanied by the phosphorylation of histone H3 on serine 10. Dephosphorylation of histone H3 on serine 10 begins in anaphase and ends at early telophase. Accordingly, phosphorylation of histone H3 on serine 10 can be utilized as a marker of cells in mitosis. Nocodazole is a microtubule destabilizing substance. Paclitaxel is a microtubule stabilizing compound. Thus, nocodazole as well as paclitaxel interfere with microtubule dynamics and mobilize the spindle assembly checkpoint. […] The mitotic breakthrough can be detected by the decrease of cells with phosphorylation of histone H3 on serine 10. This decline is used as a marker to determine the capability of compounds of the present invention to induce a mitotic breakthrough. The typical morphological alteration of nuclei with a prematurely completed mitosis after SAC-inhibition can be monitored via image analysis routines supporting those findings.
(§2) The nocodazole and paclitaxel variations were used to focus on compounds that are capable of inhibiting a SAC induced by both microtubule destabilization as well as microtubule stabilization. When SAC inducing agents and compounds are given simultaneously, inhibitors that effectively block the SAC during formation or abrogation are identified. When cells are incubated with a SAC inducing agent and the SAC interfering compound is given after a defined time, inhibitors are identified that effectively block SAC abrogation.
(§3) Cultivated cells of the human cervical tumor cell line HeLa (ATCC CCL-2) were plated at a density of 1000 cells/well in a 1536-well microtiter plate in 2 μl PAA Ham's F12 Medium supplemented with 1% (v/v) glutamine, 1% (v/v) penicillin, 1% (v/v) streptomycin and 10% (v/v) fetal calf serum. After incubation overnight at 37° C., 10 μl/well nocodazole at a final concentration of 0.1 μg/ml were added to cells. Test compounds solubilized in dimethyl sulfoxide (DMSO) were added at various concentrations (0 μM, as well as in the range of 0.005 μM-20 μM; the final concentration of the solvent DMSO was 0.5% (v/v)). Cells were incubated for 24 h at 37° C. in the presence of test compounds in combination with nocodazole. Thereafter, cells were fixed in 4% (v/v) paraformaldehyde in phosphate buffered saline (PBS) at 4° C. overnight then permeabilized in 0.1% (v/v) Triton X™ 100 in PBS at room temperature for 20 min and blocked in 0.5% (v/v) bovine serum albumin (BSA) in PBS at room temperature for 15 min. After washing with PBS, 5 μl/well antibody solution (anti-phospho-histone H3 clone 3H10, FITC; Millipore, Cat #16-222; 1:1000 dilution) was added to cells, which were incubated for 2 h at room temperature. Afterwards, cells were washed with PBS and 5 μl/well solution of HOECHST 33342 dye (5 μg/ml) was added to cells and cells were incubated 15 min at room temperature in the dark. Cells were washed twice with PBS then covered with PBS and stored at 4° C. until analysis. Images were acquired with a PERKIN ELMER OPERA™ High-Content Analysis reader. Images were analyzed with image analysis software MetaXpress™ from Molecular devices utilizing the Mitotic Index application module. In this assay both labels HOECHST 33342 and phosphorylated Histone H3 on serine 10 were measured. HOECHST 33342 labels the DNA and is used to count the cell number. The staining of phosphorylated Histone H3 on serine 10 determines the number of mitotic cells. […] Otherwise cells were arrested at G2/M phase of the cell cycle progression. The raw assay data were further analyzed by four-parametric hill equation using Genedata's Assay Analyzer and Condoseo software.

[2] = test system: spindle assembly checkpoint; experiment: SAC-Formation - Paclitaxel-Induced Assay; assay type: cell-based; settings: Homo sapiens; HeLa cells, paclitaxel 0.05 μM, 24 h, phosphorylated histone H3 on serine 10
Excerpt: as §1, §2
as §3, with “paclitaxel” for “nocodazole”, “0.05 μM” for “0.1 μg/ml”, “paclitaxel.” for “nocodazole.”

| SMILES | IC50 [1] | IC50 [2] |
| --- | --- | --- |
| CCc1ccccc1NC(=O)c1c(C)nsc1Nc1cnc2cccc(C)c2n1 [Example 33, N-(2-Ethylphenyl)-3-methyl-5-[(8-methylquinoxalin-2-yl)amino]-1,2-thiazole-4-carboxamide] | 200 nM | 730 nM |
| CCc1ccccc1NC(=O)c1c(C)nsc1Nc1ncnc2sccc12 [Example 12, N-(2-Ethylphenyl)-3-methyl-5-(thieno[2,3-d]pyrimidin-4-ylamino)-1,2-thiazole-4-carboxamide] | 2000 nM | 6900 nM |
| COc1ccc(NC(=O)c2c(C)nsc2Nc2cc(C#N)ccn2)cn1 [Example 25, 5-[(4-Cyanopyridin-2-yl)amino]-N-(6-methoxypyridin-3-yl)-3-methyl-1,2-thiazole-4-carboxamide] | 2200 nM | 1200 nM |
| COc1ccc(NC(=O)c2c(C)nsc2Nc2cnc3cc(Cl)ccc3n2)cn1 [Example 23, 5-[(6-Chloroquinoxalin-2-yl)amino]-N-(6-methoxypyridin-3-yl)-3-methyl-1,2-thiazole-4-carboxamide] | 280 nM | 500 nM |
| CCc1ccccc1NC(=O)c1c(C)nsc1Nc1ncnc2ccsc12 [Example 13, N-(2-Ethylphenyl)-3-methyl-5-(thieno[3,2-d]pyrimidin-4-ylamino)-1,2-thiazole-4-carboxamide] | 590 nM | 2100 nM |
| CCc1ccccc1NC(=O)c1c(C)nsc1Nc1cnccn1 [Example 1, N-(2-Ethylphenyl)-3-methyl-5-(pyrazin-2-ylamino)-1,2-thiazole-4-carboxamide] | 1800 nM | 4900 nM |
| COC(=O)c1cnc(Nc2snc(C)c2C(=O)Nc2ccc(OC)nc2)cn1 [Example 32, Methyl 5-({4-[(6-methoxypyridin-3-yl)carbamoyl]-3-methyl-1,2-thiazol-5-yl}amino)-pyrazine-2-carboxylate] | 510 nM | 1200 nM |
| CCc1ccccc1NC(=O)c1c(C)nsc1Nc1ccc(C#N)cn1 [Example 7, 5-[(5-Cyanopyridin-2-yl)amino]-N-(2-ethylphenyl)-3-methyl-1,2-thiazole-4-carboxamide] | 830 nM | 2500 nM |
| Cc1nsc(Nc2cc(C#N)ccn2)c1C(=O)Nc1ccc(F)c(F)c1 [Example 27, 5-[(4-Cyanopyridin-2-yl)amino]-N-(3,4-difluorophenyl)-3-methyl-1,2-thiazole-4-carboxamide] | 110 nM | 170 nM |

More lines, now with the values ahead:

| IC50 [1] | IC50 [2] | SMILES |
| --- | --- | --- |
| 270 nM | 1200 nM | COc1ncc(NC(=O)c2c(C)nsc2Nc2ccc(C#N)cn2)cc1C [Example 120, 5-[(5-Cyanopyridin-2-yl)amino]-N-(6-methoxy-5-methylpyridin-3-yl)-3-methyl-1,2-thiazole-4-carboxamide] |
| 530 nM | 7500 nM | Cc1nsc(Nc2cncc(C(=O)N(C)C)n2)c1C(=O)Nc1ccc(F)c(F)c1 [Example 104, 6-({4-[(3,4-Difluorophenyl)-carbamoyl]-3-methyl-1,2-thiazol-5-yl}amino)-N,N-dimethyl-pyrazine-2-carboxamide] |
| 130 nM | 140 nM | COc1ccc(NC(=O)c2c(C)nsc2Nc2nc3c(C(F)(F)F)cccc3s2)cn1 [Example 48, N-(6-Methoxypyridin-3-yl)-3-methyl-5-{[4-(trifluoromethyl)-1,3-benzothiazol-2-yl]-amino}-1,2-thiazole-4-carboxamide] |
| 34 nM | 16 nM | Cc1nsc(Nc2ccc(C#N)cn2)c1C(=O)Nc1ccc(Cl)c(F)c1 [Example 52, N-(4-Chloro-3-fluorophenyl)-5-[(5-cyanopyridin-2-yl)amino]-3-methyl-1,2-thiazole-4-carboxamide] |
| 20000 nM | 300 nM | CCNC(=O)c1csc(Nc2snc(C)c2C(=O)Nc2ccc(F)c(F)c2)n1 [Example 99, N-(3,4-Difluorophenyl)-5-{[4-(ethylcarbamoyl)-1,3-thiazol-2-yl]amino}-3-methyl-1,2-thiazole-4-carboxamide] |
| 1600 nM | 3700 nM | COc1ccc(NC(=O)c2c(C)nsc2Nc2ncccc2C#N)cn1 [Example 36, 5-[(3-Cyanopyridin-2-yl)amino]-N-(6-methoxypyridin-3-yl)-3-methyl-1,2-thiazole-4-carboxamide] |
| 240 nM | 820 nM | Cc1nsc(Nc2nc3c(C(F)(F)F)ccnc3s2)c1C(=O)Nc1ccc(Cl)c(F)c1 [Example 103, N-(4-Chloro-3-fluorophenyl)-3-methyl-5-{[7-(trifluoromethyl)[1,3]thiazolo[5,4-b]pyridin-2-yl]amino}-1,2-thiazole-4-carboxamide] |
| 260 nM | 320 nM | Cc1nsc(Nc2cncc(C(=O)N3CCCC3)n2)c1C(=O)Nc1ccc(F)c(F)c1 [Example 106, N-(3,4-Difluorophenyl)-3-methyl-5-{[6-(pyrrolidin-1-ylcarbonyl)pyrazin-2-yl]amino}-1,2-thiazole-4-carboxamide] |
| 3000 nM | 7900 nM | CCOC(=O)c1coc(Nc2snc(C)c2C(=O)Nc2ccc(F)c(F)c2)n1 [Example 98, Ethyl 2-({4-[(3,4-difluoro-phenyl)carbamoyl]-3-methyl-1,2-thiazol-5-yl}amino)-1,3-oxazole-4-carboxylate] |
| 220 nM | 790 nM | Cc1nsc(Nc2nc3c(C(F)(F)F)cccc3s2)c1C(=O)Nc1ccc(Cl)c(Cl)c1 [Example 102, N-(3,4-Dichlorophenyl)-3-methyl-5-{[4-(trifluoromethyl)-1,3-benzothiazol-2-yl]amino}-1,2-thiazole-4-carboxamide] |
| 340 nM | 590 nM | Cc1nsc(Nc2nc3c(C(F)(F)F)cccc3s2)c1C(=O)Nc1ccc(Cl)c(F)c1 [Example 53, N-(4-Chloro-3-fluorophenyl)-3-methyl-5-{[4-(trifluoromethyl)-1,3-benzothiazol-2-yl]amino}-1,2-thiazole-4-carboxamide] |
| 61 nM | 34 nM | Cc1nsc(Nc2cnc3cc(F)ccc3n2)c1C(=O)Nc1ccc(F)c(F)c1 [Example 46, N-(3,4-Difluorophenyl)-5-[(6-fluoroquinoxalin-2-yl)amino]-3-methyl-1,2-thiazole-4-carboxamide] |
